In brackets after ≈: the same amount, converted by molar mass.
Assays:
[1] = tested on: human promyelocytic leukemia cell line (HL60); assay: MTT inhibition of HL60 cancer cell line; type: cell-based; conditions: HL-60, HL60, 72 hs
Experimental: (§1) 1. Preparing test solutions: taking a certain amount of compounds 5, using dimethyl sulfoxide (DMSO) to dissolve the compound, and using cell growth medium for each corresponding cell line to dilute the solution to 5 concentrations of test solutions: 500, 250, 125, 62.5, 31.25 μg/mL. The positive control doxorubicin were diluted with cell growth medium for each corresponding cell line to 3 concentrations: 5, 2.5, 1.25 μM. Seven human cancer cell lines, including five adhesive cancer cell lines: human gastric cancer cell line (MKN-45), non-small cell lung cancer cell line (A549), nasopharyngeal carcinoma cell line (CNE1, CNE2), large cell lung cancer cell line (PC-9); and two suspensive cancer cell lines: human promyelocytic leukemia cell line (HL60), human chronic myelogenous leukemia cell line (K562). All seven human cancer cell lines are purchased from Shanghai Chinese Academy of Sciences Cell Bank and stored in School of Medicine of Fujian Medical University. The aforementioned seven cancer cell lines were recovered from the liquid nitrogen, and then cultured in 25 cm^2 flasks under the corresponding culture conditions of each cell lines (see Table 2). […] OD was measured with microplate reader under wavelength of 492 nm and then the inhibition rate was calculated. […]

[2] = tested on: human chronic myelogenous leukemia cell line (K562); assay: MTT inhibition of K562 cancer cell line; type: cell-based; conditions: K562, 72 hs
Experimental: as §1

[3] = tested on: human gastric cancer cell line (MKN-45); assay: MTT inhibition of MKN-45 cancer cell line; type: cell-based; conditions: MKN-45, 72 hs
Experimental: as §1

[4] = Solubility of Compound 5 when preparing the test solution; type: physicochemical
Excerpt: Its water solution (or saline solution) was acidic. […] Suitable co-solvents were selected to enhance the solubility. Studied the solubility enhancing effects of Tween-80 (final concentration 0.02-2%, v/v), PEG-400 (final concentration <40%, v/v), 1, 2-propanediol (final concentration <40%, v/v), glycerol (final concentration <30%, v/v), and CMC-Na (final concentration 1-5%, w/v). […] Considering formulations comprising tween compounds may lead to hemolysis, PEG-400 was selected as the co-solvent.

[5] = tested on: large cell lung cancer cell line (PC-9); assay: MTT inhibition of PC-9 cancer cell line; type: cell-based; conditions: Homo sapiens, PC-9, 72 hs
Experimental: as §1

[6] = tested on: non-small cell lung cancer cell line (A549); assay: MTT inhibition of A549 cancer cell line; type: cell-based; conditions: Homo sapiens, A549, 72 hs
Experimental: as §1

[7] = tested on: nasopharyngeal carcinoma cell line (CNE1); assay: MTT inhibition of CNE1 cancer cell line; type: cell-based; conditions: Homo sapiens, CNE1, 72 hs
Experimental: as §1

[8] = tested on: nasopharyngeal carcinoma cell line (CNE2); assay: MTT inhibition of CNE2 cancer cell line; type: cell-based; conditions: Homo sapiens, CNE-2, CNE2, 72 hs
Experimental: as §1

A549 cells xenograft = assay: In vivo anti-tumor activity, A549 nude mouse model; conditions: for Weights (g) After treatment: body weight after treatment; for Weights (g) Before treatment: body weight before treatment
Experimental: The nude mice were fed in the SPF-system, six mice in a cage. The nude mice were provided with standard food and water, maintained in the light and dark cycling conditions (12/12 h), room temperature 25±2° C., humidity 50±10%. The water and beddings were steriled and changed every day. The mice were fed in the maintenance room for a week before the experiments.
Accurately weighed a certain amount of injection grade doxorubicin powder, added saline to obtain a 0.4 mg/mL test solution. The test solution is prepared avoiding light and handy for use.
Human non-small cell lung cancer cell line A549 was resuscitated. The ratio of FBS in the culture was increased from 6% to 10%, so as to make the cells proliferated rapidly. When the cell coverage in the culture flask reached 80% or so (i.e., logarithmic growth phase), the A549 cells were digested and suspended. Using autoclaved PBS to wash the cells twice to remove the residual culture medium. And then the cells were resuspended with PBS and adjusted the cells concentration to 1×10^7 cells/mL.
After the mice accustomed to the environment, under steriled condition, using disposable syringe to transfer A549 cells (1×10^7/mL) and subcutaneously inoculated in the flank of nude mice. 0.2 ml of suspension of A549 cells was injected into each nude mice and the procedure was finished within 30 min. The rest of the cells were subjected to culture and observed for any contamination, so as to provide information on whether the construction of animal model was success.
After the inoculation of cancer cells was success and the volume of xenograft tumors reached 50 to 100 mm^3, the animals were divided randomly into 5 groups (high dosage, middle dosage, low dosage, positive control, blank control) and each group comprised 6 mice.
The animals were administered once per day. The injection volume was adjusted according to the weight measured. The animals were administered for 12 days. Positive control group was injected with 2 mg/kg Doxorubicin. The animals were administered once every 3 days, and 4 times in the 12-day period. Blank control group was injected with saline solution.
During the administration period, the living and mental state of the mice were observed every day. Body weight and tumor size was measured and recorded. The tumor size was measured using Vernier caliper and tumor volumes were calculated using the formula: V (mm^3)=½×L (mm)×W^2 (mm^2) in which L is the length and W is the width of the solid tumor nodules.
24 hrs after the last administration, the nude mice were sacrificed and the tumor was removed for volume measurements. Tumor inhibition rate was calculated.
Each mouse was weighted 24 hours after administration. In the end of the experiment, the mice were sacrifice by treating at the neck area. The tumor was removed for volume measurements and took photos.
The experimental data were analyzed by SPSS 13.0 software Comparison between groups were carried out by one-way ANOVA or two-sample comparison of U-test. Results were provided in mean±SE, difference with P<0.05 was deemed significant.

[9] = High dosage 30 mg/kg tail vein once per day, 12 days
[10] = Low dosage 5 mg/kg tail vein once per day, 12 days
[11] = Middle dosage 15 mg/kg tail vein once per day, 12 days
[12] = 2 mg/kg tail vein once every 3 days, 4 times in 12 days

For `O=c1cc(-c2ccc(Oc3c(-c4ccc(O)cc4)oc4cc(O)cc(O)c4c3=O)cc2)oc2cc(O)cc(O)c12` [Compound 5, 3-(4-(5,7-dihydroxy-4-oxo-4H-benzopyran-2-yl)phenoxyl)-5,7-dihydroxy-2-(4-hydroxyphenyl)-4H-benzopyran-4-one], the IC50 [1] was 18.3 ± 3 µg/mL (≈ 34 µM), the IC50 [2] was 16.8 ± 2.8 µg/mL (≈ 31.2 µM) and the IC50 [3] was 33.2 ± 3.1 µg/mL (≈ 61.7 µM). The “solubility at injection acceptable pH” value ([4]; pH adjusted to 6.0-8.0) was “still quite low”, the solubility in water ([4]; water) was “poorly dissolved in water” and the IC50 [5] was 21.8 ± 1.3 µg/mL (≈ 40.5 µM). It also gave an IC50 [6] of 13.2 ± 0.91 µg/mL (≈ 24.5 µM), an IC50 [7] of 49.3 ± 2.8 µg/mL (≈ 91.5 µM) and an IC50 [8] of 13.3 ± 2.6 µg/mL (≈ 24.7 µM). For the same molecule, the “toxicity in nude mice” value (A549 cells xenograft; 5-30 mg/kg tail vein once per day, 12 days) was “low”, the “Tumor Weight-inhibitions(%)” value (A549 cells xenograft; [9]) was 62.2±21.3% and the “Tumor weights” value (A549 cells xenograft; [9]) was 0.193 ± 0.056 g. For the same molecule, the “Weights (g) After treatment” value (A549 cells xenograft; [9]) was 24.4 ± 1.6 g, the “Weights (g) Before treatment” value (A549 cells xenograft; [9]) was 22.4 ± 1.2 g and the “Tumor Weight-inhibitions(%)” value (A549 cells xenograft; [10]) was 36.9±6.1%. For the same molecule, the “Tumor weights” value (A549 cells xenograft; [10]) was 0.305 ± 0.039 g, the “Weights (g) After treatment” value (A549 cells xenograft; [10]) was 23.4 ± 0.7 g and the “Weights (g) Before treatment” value (A549 cells xenograft; [10]) was 22.8 ± 0.8 g. The “Tumor Weight-inhibitions(%)” value (A549 cells xenograft; [11]) was 43.7±19.8%, the “Tumor weights” value (A549 cells xenograft; [11]) was 0.287 ± 0.101 g and the “Weights (g) After treatment” value (A549 cells xenograft; [11]) was 24.9 ± 1.0 g. For the same molecule, the “Weights (g) Before treatment” value (A549 cells xenograft; [11]) was 23.9 ± 1.5 g.

With `COc1cccc2c1C(=O)c1c(O)c3c(c(O)c1C2=O)C[C@@](O)(C(=O)CO)C[C@@H]3O[C@H]1C[C@H](N)[C@H](O)[C@H](C)O1` [Doxorubicin, reference compound] the “Tumor Weight-inhibitions(%)” value (A549 cells xenograft; [12]) was 56.8±5.6%, the “Tumor weights” value (A549 cells xenograft; [12]) was 0.220 ± 0.037 g and the “Weights (g) After treatment” value (A549 cells xenograft; [12]) was 23.6 ± 1.1 g. For the same molecule, the “Weights (g) Before treatment” value (A549 cells xenograft; [12]) was 22.7 ± 1.9 g.

From patent US20170360743A1, “BIFLAVONE COMPOUND AND USES THEREOF FOR TREATING CANCERS AND PREPARING DRUGS” (FUJIAN MEDICAL UNIVERSITY, priority 2015, published 2017)
